{
  "source": "patent US12606552B2",
  "about": "“Bifunctional compound, preparation method therefor, and use thereof” (SUZHOU KINTOR PHARMACEUTICALS, INC., priority 2020, dated 2026)",
  "key": {"AR": {"target": "T1, AR (Homo sapiens, UniProt P10275, T878A)", "T1 sequence (P10275 1-920 T878A)": "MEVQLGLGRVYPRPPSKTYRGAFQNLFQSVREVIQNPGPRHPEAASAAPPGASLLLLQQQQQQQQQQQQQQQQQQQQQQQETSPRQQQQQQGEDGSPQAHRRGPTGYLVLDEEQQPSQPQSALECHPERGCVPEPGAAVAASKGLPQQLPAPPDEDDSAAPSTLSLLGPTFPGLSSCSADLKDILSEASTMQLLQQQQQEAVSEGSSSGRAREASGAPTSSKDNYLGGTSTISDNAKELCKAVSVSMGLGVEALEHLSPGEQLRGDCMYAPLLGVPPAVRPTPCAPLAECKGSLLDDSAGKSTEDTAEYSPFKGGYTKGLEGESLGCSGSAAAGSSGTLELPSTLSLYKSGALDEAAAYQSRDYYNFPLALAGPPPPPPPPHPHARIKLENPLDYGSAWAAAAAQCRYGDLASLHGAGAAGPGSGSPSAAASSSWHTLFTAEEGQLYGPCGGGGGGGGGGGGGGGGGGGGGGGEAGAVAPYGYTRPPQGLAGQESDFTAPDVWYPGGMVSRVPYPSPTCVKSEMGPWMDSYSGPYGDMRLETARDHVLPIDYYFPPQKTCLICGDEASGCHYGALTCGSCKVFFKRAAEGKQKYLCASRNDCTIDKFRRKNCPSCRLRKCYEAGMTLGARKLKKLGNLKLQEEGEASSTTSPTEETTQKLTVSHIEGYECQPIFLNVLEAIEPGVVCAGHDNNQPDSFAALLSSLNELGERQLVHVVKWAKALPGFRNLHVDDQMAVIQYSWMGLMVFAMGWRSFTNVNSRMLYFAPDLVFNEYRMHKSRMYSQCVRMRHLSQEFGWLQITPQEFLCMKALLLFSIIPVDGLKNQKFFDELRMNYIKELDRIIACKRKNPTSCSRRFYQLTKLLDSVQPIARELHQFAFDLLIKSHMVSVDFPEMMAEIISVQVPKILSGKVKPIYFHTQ", "experiment": "Effects of compounds on AR expression in LNCaP cells (ELISA, DC50)", "format": "cell-based", "set-up": "Measurement of the Effects of Drugs on the Expression of AR in Cells by ELISA Method; endogenous in cells; host or cells: LNCaP", "settings": "24 hours of drug treatment, AR by ELISA", "outline": "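LNCaP cells at about 15,000/well were treated for 24 h with compound at 0.0001–2 μmol/L final. AR in cell lysates was measured by ELISA (OD450). Inhibition was relative to DMSO control after blank subtraction, and DC50 was calculated from it.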"}, "[1]": {"experiment": "Pharmacokinetic studies of compounds in mice", "format": "in vivo", "settings": "male mice, intragastric administration 10 mg/kg, plasma", "method": "Activity Assay Example 3: Pharmacokinetic Studies of Compounds in Mice\nIn this test, 3 male mice were selected and divided into 1 group, 3 mice/group. All animals were fasted overnight before administration.\nThe intragastric administration dose was 10 mg/kg, and the administration volume was 10 mL/kg.\n2.2 Preparation of Drug Solution\nAccording to the animal body weight combined with the administration dose, the amount of the required drug solution was calculated. An appropriate amount of the test substance was weighed, added with 5% of the final volume of ethanol for dissolution, then added with 5% of the final volume of SolutolHS15, and finally added with PBS to the final volume, and mixed by vortex and fully dissolved to obtain a solution for intragastric administration (1 mg/mL). All solutions were prepared for immediate use.\n2.3 Method of Administration\nBefore administration, the drug solution was placed on a magnetic stirrer in the animal laboratory and stirred for at least 10 min. During the administration process, vortex was continued to ensure uniformity of the drug solution. The theoretical volume of gavage administration was 10 mL/kg, which was administered with a syringe equipped with a gavage needle.\nBefore administration, the animals were weighed and the body weight of the animals involved in the experiment was recorded, and the administration volume of each animal was calculated according to the body weight. After administration, animals were promptly transferred back to the experimental cages to collect samples.\n2.4 Observation of Animal Status\nAfter administration, whether animals had abnormal reactions was observed immediately. If there were no abnormal reactions, animals were observed twice a day during the experiment. If abnormal reactions were found, they should be recorded in time, and the number of observations should be increased until the animals returned to normal or to the end of the experiment.\n2.5 Sample Collection and Preservation\nAll experimental animals were fasted overnight before administration, and blood was collected at corresponding time points into blood collection tubes containing heparin sodium anticoagulant. After the whole blood was collected, the blood collection tube was gently shaken and placed on ice immediately, and then centrifuged (4° C., 4000 rpm, 10 min) to collect supernatant plasma samples, which were stored in a refrigerator at −80° C. before analysis.\n2.6 Plasma Sample Processing and Analysis\nThe collected plasma samples were handed over to the Pharmacokinetic department for sample extraction, and the test substances in the plasma were extracted by protein precipitation method using organic reagents containing internal standards (acetonitrile:plasma=4:1, v/v). The extracted processed samples were submitted for quantitative concentration analysis by LC-MS/MS. According to the plasma concentration of each animal obtained by the analysis, software Kinetica (version 5.0) was used to calculate the main pharmacokinetic parameter eAUC30-120 according to the non-compartment model to evaluate the exposure amount; the test results are shown in Table 2: […]"}, "[2]": {"tested_on": "androgenetic alopecia model in C57BL/6J mice", "experiment": "Hair regeneration effects on androgenic alopecia C57 mouse model (DHT-induced)", "format": "in vivo, C57BL/6N mice", "settings": "AVER n = 6, score 0-5", "source_text": "Activity Assay Example 8: Hair Regeneration Effects of Compounds on Androgenic Alopecia C57 Mouse Model\nThe purpose of this study was to compare the effect of the compounds prepared by the present invention as AR protein degraders on hair regrowth in an androgenetic alopecia model in C57BL/6J mice by transdermal application route of administration, and to provide data to support subsequent clinical trials.\n2. Experimental Principle\nName of test compound I: dihydrotestosterone DHT; name of test compound II: compound A46 of the present invention; name of test compound III: minoxidil.\n4. Experimental animals: strain: C57BL/6N mice; age: 6-7 weeks; gender: male; number of animals: 70 (10 for later use); rearing environment: specific pathogen-free (SPF).\n70 mice were deeply anesthetized, and the hair on the back of the mice was removed with an animal shaver, then the depilatory cream (Veet https://item.jd.com/6291245.html) was smeared evenly on the surface of the mice skin, and left 7-10 minutes. Then the hair was gently scraped off with a hair removal scraper against the direction of the hair, and finally the residual hair removal cream on the skin surface was fully washed with water to avoid burning the mice skin.\nThis experiment was divided into 6 groups, and the DHT administration started on the day of hair removal, A46 is administered on day 2 after hair removal and is counted as day 1 (the day of hair removal is counted as day 0).\n5.3 Test Compound Preparation Method\n5.4 Observation and Measurement Indicators • 1) Body weight/g: From the first day of administration, body weight was weighed and recorded twice a week. • 2) Hair regeneration (anagen) score (0 points: no darkening of skin color in all areas; 1 point: darkening of gray skin color areas; 2 points: visible short hair; 3 points: thin hair; 4 points: thick hair; 5 points: full hair growth).\nAll mice were photographed on day 1 after hair removal, and then photographed and scored daily from day 4 until the end of the experiment. • 3) At the end of the experiment, skin and blood collection operations were performed as needed. 5.5 Criteria for Drug Withdrawal and Experiment Termination\nData are presented as average±standard error (AVE±SEM). One-way multi-level analysis of variance was used for statistics. The comparison between each drug group and the model group was performed by Stundent's t-test or rank sum test, and the p value was calculated. p<0.05 means there is a significant difference between the two groups, p<0.01 means there is a extremely significant difference between the two groups."}},
  "data": [
    {"smiles": "Cc1ncsc1-c1ccc(CNC(=O)[C@@H]2C[C@@H](O)CN2C(=O)[C@@H](NC(=O)c2ccc(CNC(=O)CCCc3ccc(N4C(=S)N(c5ccc(C#N)c(C(F)(F)F)c5F)C(=O)C4(C)C)cn3)cc2)C(C)(C)C)cc1", "note": "[Compound A134]", "values": [
      {"measurement": "DC50", "setting": "AR", "value": 1130, "unit": "nM"},
      {"measurement": "eAUC0.5-2 h", "setting": "[1]", "value": "29 ± 22", "unit": "ng·h/mL"}
    ]},
    {"smiles": "Cc1ncsc1-c1ccc([C@H](CC(=O)N2CCC(Oc3ccc(-c4ncc(N5C(=S)N(c6ccc(C#N)c(C(F)(F)F)c6F)C(=O)C5(C)C)cc4F)cc3F)CC2)NC(=O)[C@@H]2C[C@@H](O)CN2C(=O)[C@@H](NC(=O)C2(F)CC2)C(C)(C)C)cc1", "note": "[Compound A136]", "values": [
      {"measurement": "DC50", "setting": "AR", "value": 68, "unit": "nM"},
      {"measurement": "eAUC0.5-2 h", "setting": "[1]", "value": "697 ± 127", "unit": "ng·h/mL"}
    ]},
    {"smiles": "CNC(=O)[C@@H]1C[C@@H](O)CN1C(=O)[C@@H](NC(=O)COCCCCOc1ccc(-c2ncc(N3C(=S)N(c4ccc(C#N)c(C(F)(F)F)c4F)C(=O)C3(C)C)cc2F)cc1F)C(C)(C)C", "note": "[Compound A137]", "values": [
      {"measurement": "DC50", "setting": "AR", "value": 145, "unit": "nM"},
      {"measurement": "eAUC0.5-2 h", "setting": "[1]", "value": "92 ± 34", "unit": "ng·h/mL"}
    ]},
    {"smiles": "Cc1ncsc1-c1ccc2[nH]c([C@@H]3C[C@@H](O)CN3C(=O)[C@@H](NC(=O)COCCCCOc3ccc(-c4ncc(N5C(=S)N(c6ccc(C#N)c(C(F)(F)F)c6F)C(=O)C5(C)C)cc4F)cc3F)C(C)(C)C)nc2c1", "note": "[Compound A138]", "values": [
      {"measurement": "DC50", "setting": "AR", "value": 1500, "unit": "nM"},
      {"measurement": "eAUC0.5-2 h", "setting": "[1]", "value": "471 ± 288", "unit": "ng·h/mL"}
    ]},
    {"smiles": "Cc1ncsc1-c1ccc([C@H](CC(=O)NCCN2CCC(C#Cc3ccc(N4C(=S)N(c5ccc(C#N)c(C(F)(F)F)c5F)C(=O)C4(C)C)cc3)CC2)NC(=O)[C@@H]2C[C@@H](O)CN2C(=O)[C@@H](NC(=O)C2(F)CC2)C(C)(C)C)cc1", "note": "[Compound A139]", "values": [
      {"measurement": "DC50", "setting": "AR", "value": 225, "unit": "nM"},
      {"measurement": "eAUC0.5-2 h", "setting": "[1]", "value": "53 ± 30", "unit": "ng·h/mL"}
    ]},
    {"smiles": "C[C@]12CCC(=O)C[C@@H]1CC[C@@H]1[C@@H]2CC[C@]2(C)[C@@H](O)CC[C@@H]12", "note": "[DHT, dihydrotestosterone, reference compound]", "values": [
      {"measurement": "Hair regeneration score", "setting": "[2]; DHT 30 mpk subcutaneous alone (model), 0 day", "value": 0.00},
      {"measurement": "Hair regeneration score", "setting": "[2]; DHT 30 mpk subcutaneous alone (model), 3 days", "value": 0.00},
      {"measurement": "Hair regeneration score", "setting": "[2]; DHT 30 mpk subcutaneous alone (model), 5 days", "value": 0.00},
      {"measurement": "Hair regeneration score", "setting": "[2]; DHT 30 mpk subcutaneous alone (model), 7 days", "value": 0.00},
      {"measurement": "Hair regeneration score", "setting": "[2]; DHT 30 mpk subcutaneous alone (model), 10 days", "value": 0.00},
      {"measurement": "Hair regeneration score", "setting": "[2]; DHT 30 mpk subcutaneous alone (model), 12 days", "value": 0.00},
      {"measurement": "Hair regeneration score", "setting": "[2]; DHT 30 mpk subcutaneous alone (model), 14 days", "value": 0.17},
      {"measurement": "Hair regeneration score", "setting": "[2]; DHT 30 mpk subcutaneous alone (model), 17 days", "value": 0.5}
    ]},
    {"smiles": "Nc1cc(N2CCCCC2)nc(N)[n+]1[O-]", "note": "[minoxidil, reference compound]", "values": [
      {"measurement": "Hair regeneration score", "setting": "[2]; 5% skin smear BID + DHT 30 mpk, 0 day", "value": 0.00},
      {"measurement": "Hair regeneration score", "setting": "[2]; 5% skin smear BID + DHT 30 mpk, 3 days", "value": 0.00},
      {"measurement": "Hair regeneration score", "setting": "[2]; 5% skin smear BID + DHT 30 mpk, 5 days", "value": 0.00},
      {"measurement": "Hair regeneration score", "setting": "[2]; 5% skin smear BID + DHT 30 mpk, 7 days", "value": 0.00},
      {"measurement": "Hair regeneration score", "setting": "[2]; 5% skin smear BID + DHT 30 mpk, 10 days", "value": 0.33},
      {"measurement": "Hair regeneration score", "setting": "[2]; 5% skin smear BID + DHT 30 mpk, 12 days", "value": 0.67},
      {"measurement": "Hair regeneration score", "setting": "[2]; 5% skin smear BID + DHT 30 mpk, 14 days", "value": 1.67},
      {"measurement": "Hair regeneration score", "setting": "[2]; 5% skin smear BID + DHT 30 mpk, 17 days", "value": 2.33}
    ]}
  ]
}
